Measurements reported in ChEMBL document CHEMBL4680278 (J Med Chem, 2020).

Biological target: G-protein coupled receptor 55 (Homo sapiens, UniProt Q9Y2T6)
Test: Activation of recombinant human GPR55 expressed in HEK293 cells assessed as increase in [35S]-GTPgammaS stimulation incubated for 60 min by scintillation counting method
Type: functional, cell-based

G-protein coupled receptor 55, sequence (Q9Y2T6 whole entry): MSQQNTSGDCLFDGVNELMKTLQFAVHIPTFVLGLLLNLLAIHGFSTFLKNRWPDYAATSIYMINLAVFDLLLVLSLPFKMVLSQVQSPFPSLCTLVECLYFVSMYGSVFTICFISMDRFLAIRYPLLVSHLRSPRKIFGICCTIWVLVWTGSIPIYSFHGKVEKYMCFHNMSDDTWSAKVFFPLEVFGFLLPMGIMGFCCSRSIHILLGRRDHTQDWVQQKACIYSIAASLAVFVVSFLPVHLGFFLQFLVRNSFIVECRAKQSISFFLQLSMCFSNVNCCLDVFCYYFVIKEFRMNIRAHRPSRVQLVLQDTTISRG

## C=C(C)[C@@H]1CCC(C)=C[C@H]1c1c(C)cc(O)cc1O
  EC50: 2 nM

## C=C(C)[C@@H]1CCC(C)=C[C@H]1c1c(O)cc(O)cc1CCCCC
  EC50: 2 nM
